These results are taken from US12528761B2, “Thyromimetics” (Autobahn Therapeutics, Inc., priority 2020, dated 2026).

The term EC50 denotes the concentration needed to bring the measured effect to its halfway point.

Where two headings read alike, the source gives them in different places.

In one experiment the target is T1, TRβ (Homo sapiens, UniProt P10828).
T1 construct: expressed in transfected cells; host or cells: HEK293
T1 sequence (P10828 217-461 limits assumed): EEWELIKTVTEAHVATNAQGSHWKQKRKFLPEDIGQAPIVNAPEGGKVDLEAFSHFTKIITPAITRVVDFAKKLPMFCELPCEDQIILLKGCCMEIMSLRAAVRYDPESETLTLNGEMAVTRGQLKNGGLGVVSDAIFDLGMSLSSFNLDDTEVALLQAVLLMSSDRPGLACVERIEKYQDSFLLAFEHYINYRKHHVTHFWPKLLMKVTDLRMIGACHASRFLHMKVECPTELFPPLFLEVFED
Description: TR reporter-gene assay (Gal4 DBD hybrid, luciferase), TRβ. The format is cell-based. The method, then: (§1) Compounds were tested for thyroid-hormone receptor activity using TR reporter-gene assays. Reporter cells used in the assays express a TR-receptor hybrid (either TRα or TRβ) in which the native N-terminal DNA binding domain (DBD) has been replaced with that of the yeast Gal4 DBD. The reporter gene, firefly luciferase, is functionally linked to the Gal4 upstream activation sequence (UAS). Both cell lines were derived from human embryonic kidney (HEK293).
(§2) Step 1: A suspension of reporter cells was prepared in cell recovery medium containing 10% charcoal-stripped FBS, and dispensed into assay plates. The plates were pre-incubated for 6 hours in a cell culture incubator (37° C./5% CO2/85% humidity).
(§3) These intermediate stocks were subsequently diluted directly into compound screening medium containing 10% charcoal-stripped FBS to generate “2×-concentration” treatment media (containing 0.2, 0.4 or 0.8% DMSO).
(§4) Step 3: At the end of the pre-incubation period, culture media were discarded from the assay plates, and all wells received 100 μl of compound screening medium. 100 μl of each of the previously prepared “2×-concentration” treatment media were dispensed into duplicate assay wells, thereby achieving the desired final treatment concentrations. The final concentration of DMSO in all assay wells was 0.1, 0.2 or 0.4%. Assay plates were incubated for 24 hr in a cell culture incubator (37° C./5% CO2/85% humidity).
(§5) Step 4: At the 24 h assay endpoint, treatment media were discarded and 100 µl/well of luciferase detection reagent was added. Relative luminometer units (RLUs) were quantified from each assay well.

The target in the next experiment is T2, TRα (Homo sapiens, UniProt P10827).
T2 construct: expressed in transfected cells; host or cells: HEK293
T2 sequence (P10827 1-410 isoform P10827-2): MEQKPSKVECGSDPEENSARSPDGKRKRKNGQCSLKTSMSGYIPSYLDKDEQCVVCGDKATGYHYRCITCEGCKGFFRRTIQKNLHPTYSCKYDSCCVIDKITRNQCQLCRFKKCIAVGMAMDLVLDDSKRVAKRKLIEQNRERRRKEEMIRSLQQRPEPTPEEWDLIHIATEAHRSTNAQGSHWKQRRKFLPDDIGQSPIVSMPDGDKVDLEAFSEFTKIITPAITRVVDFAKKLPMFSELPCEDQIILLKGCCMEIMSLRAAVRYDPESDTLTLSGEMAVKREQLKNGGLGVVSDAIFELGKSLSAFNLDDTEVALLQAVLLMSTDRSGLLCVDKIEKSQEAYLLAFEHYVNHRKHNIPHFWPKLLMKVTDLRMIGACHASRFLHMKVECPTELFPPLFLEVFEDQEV
The experiment can be described thus: TR reporter-gene assay (Gal4 DBD hybrid, luciferase), TRα. The format is cell-based. The method, then:
as §1, §2, §3, §4, §5

Where [1] appears, read: HEK293-derived reporter cells, 24 hr treatment, read-out: TRβ EC50.
[2] abbreviates: HEK293-derived reporter cells, 24 hr treatment, read-out: TRα EC50.

Consider `CCOC(=O)/C(=C\c1cc(Cl)c(Cc2ccc(O)c(C(C)C)c2)c(Cl)c1)C(=O)O` [Compound 90, 3-(3,5-dichloro-4-(4-hydroxy-3-isopropylbenzyl)phenyl)-2-(ethoxycarbonyl)acrylic acid], for which the EC50 at TRβ (setting [1]) and on TRα (setting [2]) was over 1000 nM throughout. In addition, the “T3-SI (selectivity index, EC50 (TRα)/EC50 (TRβ))” value on TRβ (class symbols) is “++ (3× < T3-SI ≤ 30×)”.

Consider `Cc1cc([S+]([O-])CC(=O)O)cc(Cl)c1Cc1ccc(O)c(C(C)C)c1` (stereo not drawn) [Compound 244, 2-((3-chloro-4-(4-hydroxy-3-isopropylbenzyl)-5-methylphenyl)sulfinyl)acetic acid], for which the concentration for a half-maximal effect (EC50) at TRβ (setting [1]) and on TRα (setting [2]) was over 1000 nM in each case. For the same compound, on TRβ (class symbols), the “T3-SI (selectivity index, EC50 (TRα)/EC50 (TRβ))” value is “++ (3× < T3-SI ≤ 30×)”.

In the case of `CC(C)c1c(O)ccc(Cc2c(Cl)cc(CC(=O)O)cc2Cl)c1F` [Compound 32, 2-(3,5-dichloro-4-(2-fluoro-4-hydroxy-3-isopropylbenzyl)phenyl)acetic acid], the EC50 is under 10 nM at TRβ and 10 to 100 nM on TRα. The “T3-SI (selectivity index, EC50 (TRα)/EC50 (TRβ))” value on TRβ (class symbols) was “++ (3× < T3-SI ≤ 30×)”.

Consider `CC(C)c1cc(Cc2c(Cl)cc(CC3NC(=O)NC3=O)cc2Cl)ccc1O` (stereo not drawn) [Compound 144, 5-(3,5-dichloro-4-(4-hydroxy-3-isopropylbenzyl)benzyl)imidazolidine-2,4-dione], for which the EC50 is over 1000 nM on TRβ (setting [1]) and 100 to 1000 nM at TRα (setting [2]). For the same compound, at TRβ (class symbols), the “T3-SI (selectivity index, EC50 (TRα)/EC50 (TRβ))” value was “+ (T3-SI ≤ 3×)”.

On to `CC(C)c1cc(Cc2c(Cl)cc(C=C(C(=O)O)C(=O)O)cc2Cl)ccc1O` [Compound 108, 2-(3,5-dichloro-4-(4-hydroxy-3-isopropylbenzyl)benzylidene)malonic acid], for which the EC50 was over 1000 nM at TRβ (setting [1]) and 100 to 1000 nM on TRα (setting [2]). Also, at TRβ (class symbols), the “T3-SI (selectivity index, EC50 (TRα)/EC50 (TRβ))” value is “+ (T3-SI ≤ 3×)”.

As to `CC(C)c1c(O)ccc(Cc2c(Cl)cc(OCCCC(=O)O)cc2Cl)c1F` [Compound 52, 4-(3,5-dichloro-4-(2-fluoro-4-hydroxy-3-isopropylbenzyl)phenoxy)butanoic acid], the EC50 on TRβ (setting [1]) and on TRα (setting [2]) was 100 to 1000 nM throughout. In addition, at TRβ (class symbols), the “T3-SI (selectivity index, EC50 (TRα)/EC50 (TRβ))” value was “+ (T3-SI ≤ 3×)”.

For `Cc1cc(CSCC(=O)O)c(F)c(Cl)c1Cc1ccc(O)c(C(C)C)c1` [Compound 224, 2-((3-chloro-2-fluoro-4-(4-hydroxy-3-isopropylbenzyl)-5-methylbenzyl)thio)acetic acid], the concentration for a half-maximal effect (EC50) at TRβ (setting [1]) and on TRα (setting [2]) was 100 to 1000 nM throughout. In addition, the “T3-SI (selectivity index, EC50 (TRα)/EC50 (TRβ))” value at TRβ (class symbols) is “++ (3× < T3-SI ≤ 30×)”.

With `CC(c1ccc(F)cc1)c1c(O)ccc(Cc2c(Cl)cc(NCC(=O)O)cc2Cl)c1F` (stereo not drawn) [Compound 50, (3,5-dichloro-4-(2-fluoro-3-(1-(4-fluorophenyl)ethyl)-4-hydroxybenzyl)phenyl) glycine], the concentration giving a half-maximal response (EC50) on TRβ (setting [1]) is under 10 nM; at TRα (setting [2]), 10 to 100 nM. For the same compound, the “T3-SI (selectivity index, EC50 (TRα)/EC50 (TRβ))” value at TRβ (class symbols) was “++ (3× < T3-SI ≤ 30×)”.

As to `CC(c1ccc(F)cc1)c1cc(Cc2c(Cl)cc(CC(=O)O)cc2Cl)ccc1O` (stereo not drawn) [Compound 9, 2-(3,5-dichloro-4-(3-(1-(4-fluorophenyl)ethyl)-4-hydroxybenzyl)phenyl)acetic acid], the EC50 was under 10 nM on TRβ (setting [1]) and 10 to 100 nM at TRα (setting [2]). Also, the “T3-SI (selectivity index, EC50 (TRα)/EC50 (TRβ))” value at TRβ (class symbols) was “++ (3× < T3-SI ≤ 30×)”.

With `C/C(=C\c1cc(Cl)c(Cc2ccc(O)c(C(C)C)c2)c(C)c1F)C(=O)O` [Compound 128, (E)-3-(5-chloro-2-fluoro-4-(4-hydroxy-3-isopropylbenzyl)-3-methylphenyl)-2-methylacrylic acid], the half-maximal effective concentration (EC50) at TRβ (setting [1]) and on TRα (setting [2]) was 10 to 100 nM in each case. Moreover, the “T3-SI (selectivity index, EC50 (TRα)/EC50 (TRβ))” value at TRβ (class symbols) is “++ (3× < T3-SI ≤ 30×)”.

With `Cc1cc(NC(=O)CC(=O)O)cc(C)c1Cc1ccc(O)c(C(C)c2ccc(F)cc2)c1` (stereo not drawn) [Compound 4, 3-((4-(3-(1-(4-fluorophenyl)ethyl)-4-hydroxybenzyl)-3,5-dimethylphenyl)amino)-3-oxopropanoic acid], the EC50 at TRβ (setting [1]) is 10 to 100 nM; at TRα (setting [2]), 100 to 1000 nM. Besides, the “T3-SI (selectivity index, EC50 (TRα)/EC50 (TRβ))” value on TRβ (class symbols) was “++ (3× < T3-SI ≤ 30×)”.

Turning to `CC(C)c1cc(Cc2c(Cl)cc(OC(F)C(=O)O)cc2Cl)ccc1O` (stereo not drawn) [Compound 81, 2-(3,5-dichloro-4-(4-hydroxy-3-isopropylbenzyl)phenoxy)-2-fluoroacetic acid], the EC50 on TRβ (setting [1]) and at TRα (setting [2]) was 100 to 1000 nM in each case. Moreover, the “T3-SI (selectivity index, EC50 (TRα)/EC50 (TRβ))” value at TRβ (class symbols) was “++ (3× < T3-SI ≤ 30×)”.

For the compound `CC(C)c1c(O)ccc(Cc2c(Cl)cc(C(C)C(=O)O)cc2Cl)c1F` (stereo not drawn) [Compound 60, 2-(3,5-dichloro-4-(2-fluoro-4-hydroxy-3-isopropylbenzyl)phenyl)propanoic acid], the EC50 on TRβ (setting [1]) and on TRα (setting [2]) was 100 to 1000 nM each time. Moreover, on TRβ (class symbols), the “T3-SI (selectivity index, EC50 (TRα)/EC50 (TRβ))” value was “++ (3× < T3-SI ≤ 30×)”.

Regarding `CC(C)c1c(O)ccc(Cc2c(Cl)cc(NC(=O)C(=O)O)cc2Cl)c1F` [Compound 213, 2-((3,5-dichloro-4-(2-fluoro-4-hydroxy-3-isopropylbenzyl)phenyl)amino)-2-oxoacetic acid], the EC50 at TRβ (setting [1]) and on TRα (setting [2]) was 100 to 1000 nM throughout. Further, the “T3-SI (selectivity index, EC50 (TRα)/EC50 (TRβ))” value at TRβ (given as a number) was 7.15.

Consider `Cc1c(F)c(SCC(=O)O)cc(Cl)c1Cc1ccc(O)c(C(C)C)c1` [Compound 227, 2-((5-chloro-2-fluoro-4-(4-hydroxy-3-isopropylbenzyl)-3-methylphenyl)thio)acetic acid], for which the EC50 on TRβ (setting [1]) and at TRα (setting [2]) was 100 to 1000 nM throughout. The “T3-SI (selectivity index, EC50 (TRα)/EC50 (TRβ))” value on TRβ (class symbols) was “++ (3× < T3-SI ≤ 30×)”.

As to `C/C(=C\c1cc(Cl)c(Cc2ccc(O)c(C(C)C)c2)c(Cl)c1)C(=O)O` [Compound 102, (E)-3-(3,5-dichloro-4-(4-hydroxy-3-isopropylbenzyl)phenyl)-2-methylacrylic acid], the EC50 at TRβ (setting [1]) and on TRα (setting [2]) was 100 to 1000 nM throughout. Moreover, the “T3-SI (selectivity index, EC50 (TRα)/EC50 (TRβ))” value at TRβ (class symbols) was “++ (3× < T3-SI ≤ 30×)”.

`C[Si](C)(C)c1c(O)ccc(Cc2c(Cl)cc(CC(=O)O)c(F)c2Cl)c1F` [Compound 151, 2-(3,5-dichloro-2-fluoro-4-(2-fluoro-4-hydroxy-3-(trimethylsilyl)benzyl)phenyl)acetic acid]: the EC50 on TRβ and at TRα was 100 to 1000 nM throughout. Moreover, at TRβ (class symbols), the “T3-SI (selectivity index, EC50 (TRα)/EC50 (TRβ))” value was “++ (3× < T3-SI ≤ 30×)”.

Turning to `CC(C)c1cc(Cc2c(Cl)cc(CCC(=O)O)cc2Cl)ccc1O` [Compound 11, 3-(3,5-dichloro-4-(4-hydroxy-3-isopropylbenzyl)phenyl)propanoic acid], the EC50 on TRβ (setting [1]) and on TRα (setting [2]) was 10 to 100 nM in each case. Further, at TRβ (class symbols), the “T3-SI (selectivity index, EC50 (TRα)/EC50 (TRβ))” value was “++ (3× < T3-SI ≤ 30×)”.

Regarding `CC(C)c1cc(Cc2c(Cl)cc(/C=C/C(=O)O)cc2Cl)ccc1O` [Compound 86, (E)-3-(3,5-dichloro-4-(4-hydroxy-3-isopropylbenzyl)phenyl)acrylic acid], the EC50 on TRβ (setting [1]) and at TRα (setting [2]) was 10 to 100 nM in each case. Also, on TRβ (class symbols), the “T3-SI (selectivity index, EC50 (TRα)/EC50 (TRβ))” value is “+ (T3-SI ≤ 3×)”.

Consider `CC(C)c1c(O)ccc(Cc2c(Cl)cc(C(=O)O)cc2Cl)c1F` [Compound 61, 3,5-dichloro-4-(2-fluoro-4-hydroxy-3-isopropylbenzyl)benzoic acid], for which the EC50 at TRβ (setting [1]) and on TRα (setting [2]) was over 1000 nM in each case. In addition, on TRβ (class symbols), the “T3-SI (selectivity index, EC50 (TRα)/EC50 (TRβ))” value is “++ (3× < T3-SI ≤ 30×)”.

Regarding `CC(C)c1cc(Cc2c(Cl)cc(OCCCCC(=O)O)cc2Cl)ccc1O` [Compound 26, 5-(3,5-dichloro-4-(4-hydroxy-3-isopropylbenzyl)phenoxy)pentanoic acid], the EC50 at TRβ (setting [1]) and on TRα (setting [2]) was 100 to 1000 nM each time. Further, the “T3-SI (selectivity index, EC50 (TRα)/EC50 (TRβ))” value at TRβ (class symbols) is “+ (T3-SI ≤ 3×)”.

Turning to `CC(C)c1cc(Cc2c(Cl)cc(NCC(=O)O)c(F)c2Cl)ccc1O` [Compound 75, (3,5-dichloro-2-fluoro-4-(4-hydroxy-3-isopropylbenzyl)phenyl)glycine], the EC50 at TRβ (setting [1]) and on TRα (setting [2]) was 10 to 100 nM in each case. Moreover, the “T3-SI (selectivity index, EC50 (TRα)/EC50 (TRβ))” value at TRβ (class symbols) was “++ (3× < T3-SI ≤ 30×)”.
